Source: the supplement of paper PMC10307832

Assays:
Assay in all cases: relative viability (nuclei count vs DMSO), 5 days (fraction); higher = more cells survive
[1] = system: ChaGo-K-1
Summary of the method: (§1)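 Lung cancer cell lines, seeded in 1536-well plates, were treated the following day by pin tool with a single drug or with five library-drug doses (not always all listed) in √10 steps on top of a fixed anchor-drug dose. Cells were fixed and nuclei stained in one step after 5 days, and nuclei were counted. Relative viability is the nuclei count for treated wells divided by that for vehicle wells, reported as medians of duplicate plates.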

[2] = system: NCI-H2009
Summary of the method: as §1

[3] = system: HCC-44
Summary of the method: as §1

[4] = system: NCI-H1734
Summary of the method: as §1

[5] = system: NCI-H2087
Summary of the method: as §1

[6] = system: NCI-H441
Summary of the method: as §1

[7] = system: SK-LU-1
Summary of the method: as §1

[8] = system: SW 1573
Summary of the method: as §1

[9] = system: NCI-H838
Summary of the method: as §1

[10] = system: NCI-H1975
Summary of the method: as §1

[11] = system: PC-3 [JPC-3]
Summary of the method: as §1

[12] = system: NCI-H522
Summary of the method: as §1

[13] = system: NCI-H1355
Summary of the method: as §1

[14] = system: EMC-BAC-2
Summary of the method: as §1

[15] = system: HCC-366
Summary of the method: as §1

[16] = system: HOP-62
Summary of the method: as §1

[17] = system: HCC-78
Summary of the method: as §1

[18] = system: UMC-11
Summary of the method: as §1

[19] = system: NCI-H2347
Summary of the method: as §1

[20] = system: NCI-H727
Summary of the method: as §1

[21] = system: NCI-H2126
Summary of the method: as §1

[22] = system: LC-2-ad
Summary of the method: as §1

[23] = system: NCI-H1944
Summary of the method: as §1

## C=C1C(=O)O[C@@H](CCCCCCCC)[C@@H]1C(=O)O [C-75] + CC(=O)Nc1cccc(-n2c(=O)n(C3CC3)c(=O)c3c(Nc4ccc(I)cc4F)n(C)c(=O)c(C)c32)c1 [Trametinib] (partner 0.02 µM)
[1]; first compound 0.08 µM
  relative viability: 0.878
[1]; first compound 0.253 µM
  relative viability: 0.875
[1]; first compound 0.8 µM
  relative viability: 0.819
[1]; first compound 2.53 µM
  relative viability: 0.538
[1]; first compound 8 µM
  relative viability: 0.907
[2]; first compound 0.08 µM
  relative viability: 0.277
[2]; first compound 0.253 µM
  relative viability: 0.249
[2]; first compound 0.8 µM
  relative viability: 0.282
[2]; first compound 2.53 µM
  relative viability: 0.262
[2]; first compound 8 µM
  relative viability: 0.332
[3]; first compound 0.08 µM
  relative viability: 1.03
[3]; first compound 0.253 µM
  relative viability: 1.14
[3]; first compound 0.8 µM
  relative viability: 0.964
[3]; first compound 2.53 µM
  relative viability: 0.991
[3]; first compound 8 µM
  relative viability: 1.09
[4]; first compound 0.08 µM
  relative viability: 0.664
[4]; first compound 0.253 µM
  relative viability: 0.78
[4]; first compound 0.8 µM
  relative viability: 0.664
[4]; first compound 2.53 µM
  relative viability: 0.524
[4]; first compound 8 µM
  relative viability: 0.691
[5]; first compound 0.08 µM
  relative viability: 0.247
[5]; first compound 0.253 µM
  relative viability: 0.24
[5]; first compound 0.8 µM
  relative viability: 0.179
[5]; first compound 2.53 µM
  relative viability: 0.16
[5]; first compound 8 µM
  relative viability: 0.212
[6]; first compound 0.08 µM
  relative viability: 0.569
[6]; first compound 0.253 µM
  relative viability: 0.533
[6]; first compound 0.8 µM
  relative viability: 0.406
[6]; first compound 8 µM
  relative viability: 0.548
[7]; first compound 0.08 µM
  relative viability: 0.494
[7]; first compound 0.253 µM
  relative viability: 0.598
[7]; first compound 0.8 µM
  relative viability: 0.49
[7]; first compound 2.53 µM
  relative viability: 0.458
[7]; first compound 8 µM
  relative viability: 0.468
[8]; first compound 0.08 µM
  relative viability: 0.586
[8]; first compound 0.253 µM
  relative viability: 0.596
[8]; first compound 0.8 µM
  relative viability: 0.547
[8]; first compound 2.53 µM
  relative viability: 0.553
[8]; first compound 8 µM
  relative viability: 0.557
[9]; first compound 0.08 µM
  relative viability: 0.524
[9]; first compound 0.253 µM
  relative viability: 0.292
[9]; first compound 0.8 µM
  relative viability: 0.456
[9]; first compound 2.53 µM
  relative viability: 0.422
[9]; first compound 8 µM
  relative viability: 0.388
[10]; first compound 0.08 µM
  relative viability: 0.452
[10]; first compound 0.253 µM
  relative viability: 0.309
[10]; first compound 0.8 µM
  relative viability: 0.305
[10]; first compound 2.53 µM
  relative viability: 0.319
[10]; first compound 8 µM
  relative viability: 0.41
[11]; first compound 0.08 µM
  relative viability: 0.744
[11]; first compound 0.253 µM
  relative viability: 0.651
[11]; first compound 0.8 µM
  relative viability: 0.657
[11]; first compound 2.53 µM
  relative viability: 0.64
[11]; first compound 8 µM
  relative viability: 0.915
[12]; first compound 0.08 µM
  relative viability: 0.784
[12]; first compound 0.253 µM
  relative viability: 0.61
[12]; first compound 0.8 µM
  relative viability: 0.747
[12]; first compound 2.53 µM
  relative viability: 0.845
[12]; first compound 8 µM
  relative viability: 0.604
[13]; first compound 0.08 µM
  relative viability: 0.436
[13]; first compound 0.253 µM
  relative viability: 0.406
[13]; first compound 0.8 µM
  relative viability: 0.384
[13]; first compound 2.53 µM
  relative viability: 0.343
[13]; first compound 8 µM
  relative viability: 0.448
[14]; first compound 0.08 µM
  relative viability: 0.872
[14]; first compound 0.253 µM
  relative viability: 0.987
[14]; first compound 0.8 µM
  relative viability: 0.853
[14]; first compound 2.53 µM
  relative viability: 0.803
[14]; first compound 8 µM
  relative viability: 0.89
[15]; first compound 0.08 µM
  relative viability: 0.356
[15]; first compound 0.253 µM
  relative viability: 0.426
[15]; first compound 0.8 µM
  relative viability: 0.327
[15]; first compound 2.53 µM
  relative viability: 0.285
[15]; first compound 8 µM
  relative viability: 0.326
[16]; first compound 0.08 µM
  relative viability: 0.354
[16]; first compound 0.253 µM
  relative viability: 0.43
[16]; first compound 0.8 µM
  relative viability: 0.358
[16]; first compound 2.53 µM
  relative viability: 0.321
[16]; first compound 8 µM
  relative viability: 0.359
[17]; first compound 0.08 µM
  relative viability: 0.776
[17]; first compound 0.253 µM
  relative viability: 0.935
[17]; first compound 0.8 µM
  relative viability: 0.782
[17]; first compound 8 µM
  relative viability: 0.62
[18]; first compound 0.08 µM
  relative viability: 0.723
[18]; first compound 0.253 µM
  relative viability: 0.841
[18]; first compound 0.8 µM
  relative viability: 0.659
[18]; first compound 2.53 µM
  relative viability: 0.581
[18]; first compound 8 µM
  relative viability: 0.526
[19]; first compound 0.08 µM
  relative viability: 0.296
[19]; first compound 0.253 µM
  relative viability: 0.193
[19]; first compound 0.8 µM
  relative viability: 0.317
[19]; first compound 2.53 µM
  relative viability: 0.26
[19]; first compound 8 µM
  relative viability: 0.365
[20]; first compound 0.08 µM
  relative viability: 0.377
[20]; first compound 0.253 µM
  relative viability: 0.378
[20]; first compound 0.8 µM
  relative viability: 0.448
[20]; first compound 2.53 µM
  relative viability: 0.393
[20]; first compound 8 µM
  relative viability: 0.352
[21]; first compound 0.08 µM
  relative viability: 0.587
[21]; first compound 0.253 µM
  relative viability: 0.587
[21]; first compound 0.8 µM
  relative viability: 0.581
[21]; first compound 2.53 µM
  relative viability: 0.553
[21]; first compound 8 µM
  relative viability: 0.502
[22]; first compound 0.08 µM
  relative viability: 0.883
[22]; first compound 0.253 µM
  relative viability: 0.954
[22]; first compound 0.8 µM
  relative viability: 0.832
[22]; first compound 2.53 µM
  relative viability: 0.861
[22]; first compound 8 µM
  relative viability: 0.926
[23]; first compound 0.08 µM
  relative viability: 0.397
[23]; first compound 0.253 µM
  relative viability: 0.465
[23]; first compound 0.8 µM
  relative viability: 0.361
[23]; first compound 2.53 µM
  relative viability: 0.367
[23]; first compound 8 µM
  relative viability: 0.371
